In PMC2707755 (Organic letters, 2009):
Read-outs that look alike come from different tables or passages of the source.

Tests used:
[1] = tested on: PP-1; settings: cited from earlier work
[2] = tested on: PP-2A; settings: read-out: IC50 PP-2A; cited from earlier work
[3] = cytotoxicity against A549 lung adenocarcinoma cell line; type: cell-based; settings: human, A549 lung adenocarcinoma cells
[4] = cytotoxicity against HT29 colon adenocarcinoma cell line; type: cell-based; settings: human, HT29 colon adenocarcinoma cells
[5] = cytotoxicity against MCF7 breast carcinoma cell line; type: cell-based; settings: human, MCF7 breast carcinoma cells
[6] = tested on: PP-1; assay: PP inhibition assay, PP-1; type: biochemical; settings: triplicate
[7] = tested on: PP-2A; assay: PP inhibition assay, PP-2A; type: biochemical; settings: triplicate
[8] = tested on: A549 lung adenocarcinoma; assay: cytotoxicity against A549 lung adenocarcinoma cell line; type: cell-based; settings: read-out: cytotoxicity IC50, A549; A549 lung adenocarcinoma
[9] = tested on: Du145 colon carcinoma; assay: cytotoxicity against Du145 colon carcinoma cell line; type: cell-based; settings: read-out: cytotoxicity IC50, Du145
[10] = tested on: HT29 colon adenocarcinoma; assay: cytotoxicity against HT29 colon adenocarcinoma cell line; type: cell-based; settings: read-out: cytotoxicity IC50, HT29; HT29 colon adenocarcinoma
[11] = tested on: MCF7 breast carcinoma; assay: cytotoxicity against MCF7 breast carcinoma cell line; type: cell-based; settings: read-out: cytotoxicity IC50, MCF7; MCF7 breast carcinoma
[12] = read-out: IC50 PP-1, pH 7.5, pH 7.5
[13] = read-out: IC50 PP-1, pH 8.4, pH 8.4

## tautomycetin [compound 2]
[1]; PP-1 over PP-2A
  higher affinity for PP-1 than for PP-2A: ~40 fold
[1]; read-out: IC50 PP-1
  IC50: 1.6 nM
[2]
  IC50: 62 nM

## CO[C@H]([C@H](O)CC(=O)[C@@H](C)[C@@H](O)CC[C@@H](C)[C@@H]1O[C@]2(CC[C@@H](C)[C@H](CC[C@H](C)C(C)=O)O2)CC[C@@H]1C)[C@H](OC(=O)C[C@@H](O)C1=C(C)C(=O)OC1=O)C(C)C [compound 1, Tautomycin, reference compound]
[3]
  IC50: 1660 ± 140 nM
[4]
  IC50: 590 ± 10 nM
[5]
  IC50: 1800 ± 120 nM
[6]; [12]
  IC50: 0.58 nM
[6]; [13]
  IC50: 0.86 nM
[7]; read-out: IC50 PP-2A, pH 7.5
  IC50: 15 nM
[7]; read-out: IC50 PP-2A, pH 8.4
  IC50: 42.6 nM

## C3′ epi-TTM
[1]; relative to 1
  less effective at PP-1 inhibition than 1: ~ 1000 fold

## 3′-deshydroxy-TTM [compound 3]
[8]
  IC50: 26600 ± 6400 nM
[9]
  IC50: 4240 ± 110 nM
[10]
  IC50: 7350 ± 190 nM
[11]
  IC50: 15600 ± 900 nM
[6]; [12]
  IC50: 470 nM
[6]; [13]
  IC50: 677 nM
[7]; read-out: IC50 PP-2A, pH 7.5
  IC50: 15600 nM
[7]; read-out: IC50 PP-2A, pH 8.4
  IC50: 15300 nM
